Patent US8765944B2, “Compounds for the treatment of hepatitis C” (priority 2010, dated 2014)

System: HCV pseudoparticles
Assay: HCV pseudoparticle infection assay (luciferase reporter, Huh7 cells)
Type: cell-based, HCV (genotype 1b E1 and E2 envelope)
Settings: Hepatitis C virus, genotype 1b, Huh-7, 48 h, HCV pseudoparticles (genotype 1b), luciferase activity 2 days after infection

| SMILES | EC50 (class) [nM] | EC50 [nM] |
| --- | --- | --- |
| C=C[C@@H]1C[C@]1(NC(=O)C1(CNC(=O)c2ccc(Nc3nc(NC4(c5ccc(Cl)cc5)CC4)nc(OCC(F)(F)F)n3)cc2)CC1)C(=O)NS(=O)(=O)C1CCC1 [Example 2069] | 0.5 to 100 |  |
| O=C(CCCCNC(=O)c1ccc(Nc2nc(NC3(c4ccc(Cl)cc4)CC3)nc(OCC(F)(F)F)n2)cc1)NC1(C(=O)NS(=O)(=O)C2CC2)CC1 [Example 2029] | 0.5 to 100 |  |
| O=C(CCNC(=O)c1ccc(Nc2nc(NC3(c4ccc(Cl)cc4)CC3)nc(OCC(F)(F)F)n2)cc1)NS(=O)(=O)C1CC1 [Example 2021] | 0.5 to 100 |  |
| CC(C)(CNC(=O)c1ccc(Nc2nc(NC3(c4ccc(Cl)cc4)CC3)nc(OCC(F)(F)F)n2)cc1)C(=O)NS(=O)(=O)C1CCC1 [Example 2089] | 0.5 to 100 |  |
| CN(C)S(=O)(=O)NC(=O)CCCCNC(=O)c1ccc(Nc2nc(NC3(c4ccc(Cl)cc4)CC3)nc(OCC(F)(F)F)n2)cc1 [Example 2030] | 0.5 to 100 |  |
| Cc1ccccc1S(=O)(=O)N1CCN(c2nc(Nc3ccc(C(=O)NS(=O)(=O)C4(CN(C)C)CC4)cc3)nc(OCC(F)(F)F)n2)CC1 [Example 8034] | 1000 to 5000 | 23000 |
| COCC1(S(=O)(=O)N(C)C(=O)c2ccc(Nc3nc(OC)nc(N(C)C4(c5ccc(Cl)cc5)CC4)n3)cc2)CC1 [Example 8009] | 1000 to 5000 |  |
| C=C[C@@H]1C[C@]1(NC(=O)C(C)(C)CNC(=O)c1ccc(Nc2nc(NC3(c4ccc(Cl)cc4)CC3)nc(OCC(F)(F)F)n2)cc1)C(=O)NS(=O)(=O)C1CC1 [Example 2080] | 0.5 to 100 |  |
| COCC1(S(=O)(=O)N(C)C(=O)c2ccc(N(C)c3nc(NC4(c5ccc(Cl)cc5)CC4)nc(OC)n3)cc2)CC1 [Example 8008] | 1000 to 5000 |  |
| CC(C)S(=O)(=O)NC(=O)C1(CNC(=O)c2ccc(Nc3nc(NC4(c5ccc(Cl)cc5)CC4)nc(OCC(F)(F)F)n3)cc2)CC1 [Example 2074] | 0.5 to 100 |  |
| O=C(NS(=O)(=O)C1(CN2CC3CC3C2)CC1)c1ccc(Nc2nc(NC3(c4ccc(Cl)cc4)CC3)nc(OCC(F)(F)F)n2)cc1 (stereo not drawn) [Example 1024] | 0.5 to 100 |  |
| O=C(Nc1cccnc1)OCC1(S(=O)(=O)NC(=O)c2ccc(Nc3nc(NC4(c5ccc(Cl)cc5)CC4)nc(OCC(F)(F)F)n3)cc2)CC1 [Example 1028] | 0.5 to 100 | 60 |
| CCS(=O)(=O)NC(=O)c1ccc(Nc2nc(NC3(c4ccc(Cl)cc4)CC3)nc(OCC(F)(F)F)n2)cc1 [Example 1003] | 0.5 to 100 |  |
| CCN(CC)CC1(C(=O)NS(=O)(=O)c2ccc(Nc3nc(NC4(c5ccc(Cl)cc5)CC4)nc(OCC(F)(F)F)n3)cc2)CC1 [Example 3004] | 1000 to 5000 | 1640 |
| CN(C)S(=O)(=O)NC(=O)[C@@]1(NC(=O)CCCNC(=O)c2ccc(Nc3nc(NC4(c5ccc(Cl)cc5)CC4)nc(OCC(F)(F)F)n3)cc2)C[C@H]1C1CC1(F)F (stereo partly drawn) [Example 2049] | 0.5 to 100 |  |
| O=C(NS(=O)(=O)CCCN1CCCC1)c1ccc(Nc2nc(NC3(c4ccc(Cl)cc4)CC3)nc(N3CCCC3)n2)cc1 [Example 8003] | 1000 to 5000 |  |
| CC(C)(C)S(=O)(=O)NC(=O)[C@@]1(NC(=O)CCCNC(=O)c2ccc(Nc3nc(NC4(c5ccc(Cl)cc5)CC4)nc(OCC(F)(F)F)n3)cc2)C[C@H]1C1CC1(F)F (stereo partly drawn) [Example 2050] | 0.5 to 100 |  |
| C=C[C@@H]1C[C@]1(NC(=O)C(C)(C)CNC(=O)c1ccc(Nc2nc(NC3(c4ccc(Cl)cc4)CC3)nc(OCC(F)(F)F)n2)cc1)C(=O)NS(=O)(=O)C(C)(C)C [Example 2082] | 0.5 to 100 |  |

| SMILES | EC50 (class) [nM] | EC50 [nM] |
| --- | --- | --- |
| Cc1ccccc1S(=O)(=O)NC(=O)c1ccc(Nc2nc(NC3(c4ccc(Cl)cc4)CC3)nc(OCC(F)(F)F)n2)cc1 [Example 8012] | 0.5 to 100 |  |
| CN(CC1(S(=O)(=O)NC(=O)c2ccc(Nc3nc(NC4(c5ccc(Cl)cc5)CC4)nc(OCC(F)(F)F)n3)cc2)CC1)c1ccccc1 [Example 1021] | 0.5 to 100 | 94 |
| Cn1cnc(C[C@H](NC(=O)c2ccc(Nc3nc(NC4(c5ccc(Cl)cc5)CC4)nc(OCC(F)(F)F)n3)cc2)C(=O)N[C@]2(C(=O)NS(=O)(=O)C3CCC3)C[C@H]2C2CC2)c1 [Example 8020] | 0.5 to 100 |  |
| O=C(NS(=O)(=O)C1(CO)CC1)c1ccc(Nc2nc(NC3(c4ccc(Cl)cc4)CC3)nc(OCC(F)(F)F)n2)cc1 [Example 1025, 4-(4-(1-(4-chlorophenyl)cyclopropylamino)-6-(2,2,2-trifluoroethoxy)-1,3,5-triazin-2-ylamino)-N-(1-(hydroxymethyl)cyclopropylsulfonyl)benzamide] | 0.5 to 100 |  |
| O=C(NS(=O)(=O)C1(CN2CCCC2)CC1)c1ccc(Nc2nc(NC3(c4ccc(Cl)cc4)CC3)nc(OCC(F)(F)F)n2)cc1 [Example 1011] | 0.5 to 100 | 0.48 |
| Cn1cnc(C[C@H](NC(=O)c2ccc(Nc3nc(NC4(c5ccc(Cl)cc5)CC4)nc(OCC(F)(F)F)n3)cc2)C(=O)N[C@]2(C(=O)NS(=O)(=O)C3CC3)C[C@H]2C2CC2)c1 [Example 8019] | 0.5 to 100 |  |
| C[C@@H](NC(=O)CCCNC(=O)c1ccc(Nc2nc(NC3(c4ccc(Cl)cc4)CC3)nc(OCC(F)(F)F)n2)cc1)C(=O)NS(=O)(=O)C1CC1 [Example 2053] | 0.5 to 100 |  |
| CC(C)(CNC(=O)c1ccc(Nc2nc(NC3(c4ccc(Cl)cc4)CC3)nc(OCC(F)(F)F)n2)cc1)C(=O)NC1(C(=O)NS(=O)(=O)C2CC2)CC1 [Example 2095] | 0.5 to 100 |  |
| CN(C)CC1(S(=O)(=O)NC(=O)c2ccc(Nc3nc(OCC(F)(F)F)nc(N4CCN(S(=O)(=O)C5CC5)CC4)n3)cc2)CC1 [Example 8025] | 1000 to 5000 |  |
| CC(C)(C)OC(=O)N1CCC(C(=O)NS(=O)(=O)CCNC(=O)c2ccc(Nc3nc(NC4(c5ccc(Cl)cc5)CC4)nc(OCC(F)(F)F)n3)cc2)CC1 [Example 4005] | 0.5 to 100 |  |
| C=C[C@@H]1C[C@]1(NC(=O)C1(CNC(=O)c2ccc(Nc3nc(NC4(c5ccc(Cl)cc5)CC4)nc(OCC(F)(F)F)n3)cc2)CC1)C(=O)NS(=O)(=O)C(C)(C)C [Example 2068] | 0.5 to 100 |  |
| O=C(CCCCNC(=O)c1ccc(Nc2nc(NC3(c4ccc(Cl)cc4)CC3)nc(OCC(F)(F)F)n2)cc1)NS(=O)(=O)C1CCC1 [Example 2028] | 0.5 to 100 |  |
| CC(C)S(=O)(=O)NC(=O)CCNC(=O)c1ccc(Nc2nc(NC3(c4ccc(Cl)cc4)CC3)nc(OCC(F)(F)F)n2)cc1 [Example 2020] | 0.5 to 100 |  |
| CC(C)(C)OC(=O)N1CCC[C@H]1C(=O)NCCS(=O)(=O)NC(=O)c1ccc(Nc2nc(NC3(c4ccc(Cl)cc4)CC3)nc(OCC(F)(F)F)n2)cc1 [Example 1041] | 0.5 to 100 |  |
| CN(C)CC1(S(=O)(=O)NC(=O)c2ccc(Nc3nc(OCC(F)(F)F)nc(N4CCN(C(=O)OC(C)(C)C)CC4)n3)cc2)CC1 [Example 8028] | 1000 to 5000 | 17600 |
| COCC1(S(=O)(=O)NC(=O)c2ccc(N(C)c3nc(OCC(F)(F)F)nc(N(C)C4(c5ccc(Cl)cc5)CC4)n3)cc2)CC1 [Example 8010] | 1000 to 5000 |  |
| O=C(NS(=O)(=O)CCN1CCCC1)c1ccc(Nc2nc(NC3(c4ccc(Cl)cc4)CC3)nc(OCC(F)(F)F)n2)cc1 [Example 1029, 4-(4-(1-(4-chlorophenyl)cyclopropylamino)-6-(2,2,2-trifluoroethoxy)-1,3,5-triazin-2-ylamino)-N-(2-(pyrrolidin-1-yl)ethylsulfonyl)benzamide] | 0.5 to 100 |  |
| Cn1cnc(C[C@H](NC(=O)c2ccc(Nc3nc(NC4(c5ccc(Cl)cc5)CC4)nc(OCC(F)(F)F)n3)cc2)C(=O)N[C@]2(C(=O)NS(=O)(=O)C(C)(C)C)C[C@H]2C2CC2)c1 [Example 8021] | 0.5 to 100 |  |
